From patent publication US8394792B2, “Heterocyclic derivatives” (C&C Research Laboratories, priority 2008, dated 2013)
Converted amounts (≈) assume the structure as drawn. Structures can show the parent of a compound that is named as a salt. Where two headings read alike, the source gives them in different places.

Tests used:
hURAT1 = molecular target: T1, hURAT1 (Homo sapiens, UniProt Q96S37); experiment: Test for inhibiting urate reuptake activity via hURAT1 (uric acid transport assay in hURAT1-overexpressed HEK293 cell line); assay type: cell-based; conditions: hURAT1-overexpressed HEK293 cells, [14C]-uric acid uptake, 100 μM uric acid; read-out: IC50 (μM) hURAT, level of uric acid reuptake inhibition
T1 construct: expressed in transfected cells; host or cells: HEK293 (human kidney cell line), transient transfection with Fugene6
T1 sequence (Q96S37 1-553): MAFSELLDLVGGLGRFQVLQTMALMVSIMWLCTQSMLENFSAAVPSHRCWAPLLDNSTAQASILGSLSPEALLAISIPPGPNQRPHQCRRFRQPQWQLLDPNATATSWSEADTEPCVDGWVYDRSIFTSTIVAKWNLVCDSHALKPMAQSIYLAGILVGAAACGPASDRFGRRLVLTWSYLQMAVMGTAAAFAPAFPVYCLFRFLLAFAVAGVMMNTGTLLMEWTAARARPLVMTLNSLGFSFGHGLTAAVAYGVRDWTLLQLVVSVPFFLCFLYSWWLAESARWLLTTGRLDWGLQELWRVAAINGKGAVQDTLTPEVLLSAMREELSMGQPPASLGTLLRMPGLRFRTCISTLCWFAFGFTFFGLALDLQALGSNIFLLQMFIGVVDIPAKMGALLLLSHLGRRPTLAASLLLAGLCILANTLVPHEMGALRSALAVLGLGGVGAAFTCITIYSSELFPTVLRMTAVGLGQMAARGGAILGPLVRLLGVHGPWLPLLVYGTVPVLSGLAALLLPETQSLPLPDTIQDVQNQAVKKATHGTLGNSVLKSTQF
Procedure: Test for Inhibiting Urate Reuptake Activity Via hURAT1
[hURAT1 Overexpression by Transient Transfection in Human Kidney Cell Line]
A human kidney cell line, HEK293 was incubated by using OptiMEM medium in 100 mm dish at (3*10^6 cells) for 24 hours. In order for the expression of hURAT1, a transfection mixture solution (Fugene6 18 μl:hURAT1 DNA 6 μg=3:1, in 600 μl OptiMEM medium/dish) was prepared and kept for 15 minutes at room temperature. To each dish, 600 μl of the mixture solution was injected and then incubated in 37[…] cell incubator for 24 hours. The hURAT1-overexpressed HEK293 cell line was trypsinized and cells were harvested. Cells were resuspended in medium and seeded at 6*10^5 cells/well and incubated for 24 hours in 24-well plate which was surface-coated with Poly-D-Lysine.
[Uric Acid Transport Assay in hURAT1-Overexpressed HEK293 Cell Line]
For each concentration, the stock sample solution was diluted in PBS (1 μl in 800 μl of PBS) as 1.25 fold concentrated working sample solution to obtain final concentrations of 0.01, 0.1, 1 and 10 μM. The hURAT1-overexpressed cell line was washed with 1 ml of PBS. After washing, PBS was discarded and the sample solution was diluted by 1.25 fold with PBS. Preincubation of cells with 200 μl/well of sample solution made above was conducted for 30 minutes in 37[…] cell incubator. After the incubation, each well was treated with 50 μl of PBS containing 500 μM [^14C]-uric acid (final 100 μM of uric acid/well). Cells were incubated for 2 minutes. The cells were washed twice with 1 ml of PBS.
To measure the uric acid uptake, each well was treated with 150 μl of M-per buffer (PIERCE) and kept in 37° C. cell incubator for 30 minutes to make cell lysates. 150 μl of cell lysates was transferred into test tube and 4 ml of scintillation cocktail was added. CPM value of [^14C]-uric acid absorbed into cells was detected using liquid scintillation counter. IC50 for the inhibition of uric acid uptake by each test sample was analyzed by computational numerical processing.

CYP2C9 = CYP2C9 (Homo sapiens, UniProt P11712); experiment: biochemical
[1] = Test for solubility according to pH; assay type: physicochemical; conditions: 37° C. 2 hours; for solubility at 2 h: thermodynamic from solid
[2] = 37 °C, pH 1.2, simulated gastric fluid, first solution pH about 1.2, 2 mg/mL, read-out: Solubility (μg/mL) pH 1.2
[3] = 37 °C, pH 6.8, aqueous buffer, second solution pH about 6.8, 2 mg/mL, read-out: Solubility (μg/mL) pH 6.8
[4] = pH 1.2, simulated gastric fluid, first solution pH about 1.2, 2 mg/mL, read-out: Solubility (μg/mL) pH 1.2
[5] = pH 6.8, aqueous buffer, second solution pH about 6.8, 2 mg/mL, read-out: Solubility (μg/mL) pH 6.8

CYP2C9, sequence (P11712 whole entry): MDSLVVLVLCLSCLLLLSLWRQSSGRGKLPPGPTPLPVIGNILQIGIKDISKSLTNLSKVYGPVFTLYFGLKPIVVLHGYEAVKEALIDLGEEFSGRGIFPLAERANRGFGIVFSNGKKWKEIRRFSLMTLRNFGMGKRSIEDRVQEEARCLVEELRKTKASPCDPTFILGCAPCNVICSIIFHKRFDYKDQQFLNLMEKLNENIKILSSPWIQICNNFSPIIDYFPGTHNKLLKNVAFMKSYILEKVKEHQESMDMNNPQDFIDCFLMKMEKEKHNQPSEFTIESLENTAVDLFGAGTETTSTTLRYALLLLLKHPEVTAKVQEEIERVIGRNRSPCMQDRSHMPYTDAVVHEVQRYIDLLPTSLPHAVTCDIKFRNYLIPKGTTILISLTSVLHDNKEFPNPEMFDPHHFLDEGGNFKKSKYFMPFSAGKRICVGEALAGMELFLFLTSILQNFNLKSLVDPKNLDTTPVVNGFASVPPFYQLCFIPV

Row | SMILES | IC50 (hURAT1) | IC50 (CYP2C9) | further results
1 | COc1c(Br)cc(C(=O)N2CCOc3ccncc32)cc1Br [Compound 2, (3,5-dibromo-4-methoxy-phenyl)-(2,3-dihydro-pyrido[4,3-b][1,4]oxazin-4-yl)-methanone] | 0.136 µM | > 12 µM | 
2 | COc1c(Br)cc(C(=O)N2CCOc3cnccc32)cc1Br [Compound 5, (3,5-dibromo-4-methoxy-phenyl)-(2,3-dihydro-pyrido[3,4-b][1,4]oxazin-1-yl)-methanone] | 0.175 µM |  | 
3 | O=C(c1ccc(O)c(Cl)c1)N1CCOc2ccncc21 [Compound 10, (3-chloro-4-hydroxy-phenyl)-(2,3-dihydro-pyrido[4,3-b][1,4]oxazin-4-yl)-methanone bromic acid salt] | 0.334 µM | > 60 µM | 
4 | O=C(c1ccc(O)c(Br)c1)N1CCOc2ccncc21 [Compound 11, (3-bromo-4-hydroxy-phenyl)-(2,3-dihydro-pyrido[4,3-b][1,4]oxazin-4-yl)-methanone bromic acid salt] | 0.175 µM | > 60 µM | 
5 | O=C(c1ccc(O)c(Cl)c1)N1CCOc2cnccc21 [Compound 18, (3-chloro-4-hydroxy-phenyl)-(2,3-dihydro-pyrido[3,4-b][1,4]oxazin-1-yl)-methanone bromic acid salt] |  | 9.7 µM | 
6 | O=C(c1ccc(O)c(C(F)(F)F)c1)N1CCOc2cnccc21 [Compound 19, (2,3-dihydro-pyrido[3,4-b][1,4]oxazin-1-yl)-(4-hydroxy-3-trifluoromethyl-phenyl)-methanone] | 0.269 µM | 6.8 µM | 
7 | O=C(c1cc(Br)c(O)c(Br)c1)N1CCOc2ncc(-c3ccccc3)cc21 [Compound 20, (3,5-dibromo-4-hydroxy-phenyl)-(7-phenyl-2,3-dihydro-pyrido[2,3-b][1,4]oxazin-1-yl)-methanone] | 0.034 µM | 5.2 µM | 
8 | O=C(c1ccc(O)nc1)N1CCOc2ccncc21 [Compound 32, (2,3-dihydro-pyrido[4,3-b][1,4]oxazin-4-yl)-(6-hydroxy-pyridin-3-yl)-methanone] |  | > 20 µM | solubility at 2 h [1, 2]: 1960 µg/mL (≈ 7.62 mM); solubility at 2 h [1, 3]: 1470 µg/mL (≈ 5.73 mM)
9 | Cl.O=C(c1cc(Br)c(O)c(Br)c1)N1CCOc2ccncc21 [Compound 33, (3,5-dibromo-4-hydroxy-phenyl)-(2,3-dihydro-pyrido[4,3-b][1,4]oxazin-4-yl)-methanone hydrochloric acid salt] |  |  | solubility at 2 h [1, 4]: 1580 µg/mL; solubility at 2 h [1, 5]: 810 µg/mL
10 | O=C(c1ccc(O)c(Cl)c1)N1CCOc2cnccc21 [Compound 34, (3-chloro-4-hydroxy-phenyl)-(2,3-dihydro-pyrido[3,4-b][1,4]oxazin-1-yl)-methanone] |  | 19.6 µM | 
11 | O=S(=O)(c1ccc(O)cc1)N1CCOc2ccncc21 [Compound 35-1, 4-(2,3-dihydro-pyrido[4,3-b][1,4]oxazin-4-sulfonyl)-phenol] |  | > 20 µM | 
12 | O=C(c1ccc(O)c(Br)c1)N1CCOc2cnccc21 [Compound 40, (3-bromo-4-hydroxy-phenyl)-(2,3-dihydro-pyrido[3,4-b][1,4]oxazin-1-yl)-methanone] |  | 15.1 µM | solubility at 2 h [1, 2]: 1320 µg/mL (≈ 3.93 mM); solubility at 2 h [1, 3]: 473 µg/mL (≈ 1.41 mM)
13 | O=C(c1cc(O)no1)N1CCOc2ccncc21 [Compound 44, (2,3-dihydro-pyrido[4,3-b][1,4]oxazin-4-yl)-(3-hydroxy-isoxazol-5-yl)-methanone] |  | > 20 µM | solubility at 2 h [1, 2]: 1960 µg/mL (≈ 7.93 mM); solubility at 2 h [1, 3]: 2100 µg/mL (≈ 8.48 mM)
14 | COc1c(Br)cc(C(=O)N2C(=O)COc3ccncc32)cc1Br [Compound 57, 4-(3,5-dibromo-4-methoxy-benzoyl)-4H-pyrido[4,3-b][1,4]oxazin-3-one] |  | > 20 µM | 
15 | O=C(c1cnc(O)nc1O)N1CCOc2ccncc21 [Compound 59, (2,3-dihydro-pyrido[4,3-b][1,4]oxazin-4-yl)-(2,4-dihydroxy-pyrimidin-5-yl)-methanone] |  | > 20 µM | solubility at 2 h [1, 2]: 2240 µg/mL (≈ 8.18 mM); solubility at 2 h [1, 3]: 676 µg/mL (≈ 2.47 mM)
16 | CC(=O)c1ccc(-c2cnc3c(c2)N(C(=O)c2cc(Br)c(O)c(Br)c2)CCO3)cc1 [Compound 67, 1-{4-[1-(3,5-dibromo-4-hydroxy-benzoyl)-2,3-dihydro-1H-pyrido[2,3-b][1,4]oxazin-7-yl]-phenyl}-ethanone] | 0.0078 µM |  | 
17 | O=C(c1cc(Br)c(O)c(Br)c1)N1CCOc2ccncc21 [Compound 71, (3,5-dibromo-4-hydroxy-phenyl)-(2,3-dihydro-pyrido[4,3-b][1,4]oxazin-4-yl)-methanone sulfuric acid salt] |  | > 20 µM | solubility at 2 h [1, 2]: 2140 µg/mL; Solubility (μg/mL) pH 6.8 ([1]; second solution pH about 6.8, 2 mg/mL): 344.7 μg/mL
18 | O=C(c1cc(Br)c([O-])c(Br)c1)N1CCOc2ccncc21.[K+] [Compound 73] |  |  | solubility at 2 h [1, 4]: 1150 µg/mL; solubility at 2 h [1, 5]: 565 µg/mL
19 | O=C1CCCN1c1cnc2c(c1)N(C(=O)c1cc(Br)c(O)c(Br)c1)CCO2 [Compound 75, 1-[1-(3,5-dibromo-4-hydroxy-benzoyl)-2,3-dihydro-1H-pyrido[2,3-b][1,4]oxazin-7-yl]-pyrrolidin-2-one] |  | 11.6 µM | 

The next lines start with results.

Row | IC50 (hURAT1) | IC50 (CYP2C9) | SMILES | further results
20 | 0.0565 µM | 3.05 µM | O=C(c1cc(Br)c(O)c(Br)c1)N1CCOc2cnccc21 [Compound 6, (3,5-dibromo-4-hydroxy-phenyl)-(2,3-dihydro-pyrido[3,4-b][1,4]oxazin-1-yl)-methanone] | 
21 | 0.02 µM | > 20 µM | O=C(c1cc(Br)c(O)c(Br)c1)N1CCOc2ncc(C3CC3)cc21 [Compound 9, (3,5-dibromo-4-hydroxy-phenyl)-(7-cyclopropyl-2,3-dihydro-pyrido[2,3-b][1,4]oxazin-1-yl)-methanone] | 
22 | 0.93 µM | 3.5 µM | O=C(c1ccc(O)c(Br)c1)N1CCOc2cnccc21 [Compound 16, (3-bromo-4-hydroxy-phenyl)-(2,3-dihydro-pyrido[3,4-b][1,4]oxazin-1-yl)-methanone bromic acid salt] | 
23 | 0.954 µM | 1.11 µM | O=S(=O)(c1cc(Cl)c(O)c(Cl)c1)N1CCOc2ccncc21 [Compound 21, 2,6-dichloro-4-(2,3-dihydro-pyrido[4,3-b][1,4]oxazin-4-sulfonyl)-phenol] | 
24 |  | > 20 µM | O=C(c1cc(Cl)nc(Cl)c1)N1CCOc2ccncc21 [Compound 31, (2,6-dichloro-pyridin-4-yl)-(2,3-dihydro-pyrido[4,3-b][1,4]oxazin-4-yl)-methanone] | solubility at 2 h [1, 2]: 1850 µg/mL (≈ 5.95 mM); solubility at 2 h [1, 3]: 199 µg/mL (≈ 0.641 mM)
25 |  | > 20 µM | COc1cc(C(=O)N2CCOc3ccncc32)on1 [Compound 43, (2,3-dihydro-pyrido[4,3-b][1,4]oxazin-4-yl)-(3-methoxy-isoxazol-5-yl)-methanone] | solubility at 2 h [1, 2]: 1260 µg/mL (≈ 4.82 mM); solubility at 2 h [1, 3]: 1010 µg/mL (≈ 3.86 mM)
26 |  | > 6 µM | O=C(CN1CCOc2ccncc21)c1cc(Br)c(O)c(Br)c1 [Compound 54, 1-(3,5-dibromo-4-hydroxy-phenyl)-2-(2,3-dihydro-pyrido[4,3-b][1,4]oxazin-4-yl)-ethanone] | 
27 |  | > 20 µM | O=C(c1cc(O)nc(O)n1)N1CCOc2ccncc21 [Compound 60, (2,3-dihydro-pyrido[4,3-b][1,4]oxazin-4-yl)-(2,6-dihydroxy-pyrimidin-4-yl)-methanone] | solubility at 2 h [1, 2]: 2130 µg/mL (≈ 7.75 mM); solubility at 2 h [1, 3]: 600 µg/mL (≈ 2.19 mM)
